≈ marks a conversion by molar mass, not a printed value. Like-named read-outs stand apart in the source and are kept apart here.
Columns and labels:
Type in all cases: cell-based
[1] = tested on: Bacillus cereus (ATCC 14579); experiment: Broth microdilution MIC, B. cereus; conditions: median/mode, read-out: MIC
[2] = tested on: Enterococcus faecalis (ATCC 29212); experiment: Broth microdilution MIC, E. faecalis
[3] = tested on: Escherichia coli (ATCC 25922); experiment: Broth microdilution MIC, E. coli
[4] = tested on: E. coli 0175:H7 (NCTC 12900); experiment: microbe, parasite or virus in culture; conditions: Escherichia coli, NCTC12900
[5] = tested on: Listeria monocytogenes (ATCC 7644); experiment: Broth microdilution MIC, L. monocytogenes
[6] = tested on: Shigella flexneri (ATCC 12022); experiment: microbe, parasite or virus in culture; conditions: ATCC12022
[7] = tested on: Salmonella enterica ssp. enterica serovar Enteritidis (ATCC 13076); experiment: Broth microdilution MIC, Salmonella Enteritidis
[8] = tested on: S. enterica ssp. enterica serovar Typhimurium (ATCC 14028); experiment: Broth microdilution MIC, Salmonella Typhimurium
[9] = tested on: Vibrio parahaemolyticus (ATCC 17802); experiment: Broth microdilution MIC, V. parahaemolyticus; conditions: ATCC17802, growth inhibited by ≥80%, read-out: MIC
[10] = tested on: diarrheagenic bacteria (12 strains); experiment: organism not typed
[11] = tested on: Bacteroides fragilis (ATCC 25285); experiment: Broth microdilution MIC, B. fragilis
[12] = tested on: Bifidobacterium adolescentis (DSMZ 20087); experiment: Broth microdilution MIC, B. adolescentis
[13] = tested on: Bifidobacterium animalis spp. lactis (DSMZ 10140); experiment: Broth microdilution MIC, B. animalis spp. lactis; conditions: DSMZ10140
[14] = tested on: Bifidobacterium bifidum (ATCC 29521); experiment: Broth microdilution MIC, B. bifidum
[15] = tested on: Bifidobacterium breve (ATCC 15700); experiment: Broth microdilution MIC, B. breve; conditions: ATCC15700, growth inhibited by ≥80%, read-out: MIC
[16] = tested on: Bifidobacterium longum ssp. longum (DSMZ 20219); experiment: Broth microdilution MIC, B. longum ssp. longum; conditions: DSMZ20219; Bifidobacterium longum ssp. longum; growth inhibited by ≥80%; read-out: MIC
[17] = tested on: Lactobacillus casei (DSMZ 20011); experiment: Broth microdilution MIC, L. casei; conditions: Lacticaseibacillus casei, DSMZ20011, Lactobacillus casei, read-out: MIC
[18] = tested on: Lactobacillus reuteri (CCM 3625); experiment: Broth microdilution MIC, L. reuteri; conditions: Limosilactobacillus reuteri, CCM3625
[19] = tested on: Lactobacillus rhamnosus (CCM 7091); experiment: Broth microdilution MIC, L. rhamnosus; conditions: Lacticaseibacillus rhamnosus, CCM7091
[20] = tested on: probiotic bacteria (9 strains); experiment: Broth microdilution MIC, probiotic bacteria as a group (mean or range over strains); conditions: read-out: x¯ -PB ± SD: mean MIC for probiotic bacteria
[21] = tested on: HT29 (ATCC HTB 38) intestinal cancer cells; experiment: MTT cytotoxicity assay, HT29; conditions: Homo sapiens, HT-29, HT29, MTT, 72 h; for IC50: read-out: IC50 ± SD; for IC80: read-out: IC80 ± SD (80% inhibitory concentration of proliferation)
[22] = tested on: FHs 74 Int (ATCC CCL 241) intestinal normal cells; experiment: MTT cytotoxicity assay, FHs 74 Int; conditions: 72 h, FHs 74 Int (intestinal normal cells), MTT; for IC50 / IC80: FHs74Int; for IC50: read-out: IC50 ± SD; for IC80: read-out: IC80 ± SD (80% inhibitory concentration of proliferation)
[23] = tested on: Clostridium difficile (DSMZ 12056); experiment: microbe, parasite or virus in culture; conditions: Clostridioides difficile, DSMZ12056
[24] = tested on: Clostridium perfringens (DSMZ 11778); experiment: microbe, parasite or virus in culture; conditions: DSMZ11778
[25] = tested on: Yersinia enterocolitica (ATCC 9610); experiment: Broth microdilution MIC, Y. enterocolitica; conditions: read-out: MIC
[26] = tested on: Caco-2 (ATCC HTB 37) intestinal cancer cells; experiment: MTT cytotoxicity assay, Caco-2; conditions: Homo sapiens, Caco-2, MTT, 72 h; for IC50: read-out: IC50 ± SD; for IC80: read-out: IC80 ± SD (80% inhibitory concentration of proliferation)
[27] = tested on: intestinal cancer cells (HT29 and Caco-2); experiment: MTT cytotoxicity assay, mean for intestinal cancer cells; conditions: for IC50: mean of HT29 and Caco-2, >512 replaced with 1024, read-out: x¯ -CC ± SD: mean IC50 for intestinal cancer cells; for IC80: read-out: x¯ -CC ± SD: mean IC80 for intestinal cancer cells
[28] = ATCC14579, growth inhibited by ≥80%
[29] = ATCC29212, growth inhibited by ≥80%, read-out: MIC
[30] = ATCC25922, growth inhibited by ≥80%, read-out: MIC
[31] = ATCC7644, growth inhibited by ≥80%, read-out: MIC
[32] = Salmonella Enteritidis, growth inhibited by ≥80%, read-out: MIC
[33] = Salmonella Typhimurium, growth inhibited by ≥80%, read-out: MIC
[34] = mean of 12 strains, >512 replaced with 1024, read-out: x¯ -DB ± SD: mean MIC for diarrheagenic bacteria
[35] = ATCC25285, growth inhibited by ≥80%, read-out: MIC
[36] = DSMZ20087, growth inhibited by ≥80%, read-out: MIC
[37] = Bifidobacterium animalis spp. lactis, growth inhibited by ≥80%, read-out: MIC
[38] = ATCC29521, growth inhibited by ≥80%, read-out: MIC
[39] = Lactobacillus reuteri, growth inhibited by ≥80%, read-out: MIC
[40] = Lactobacillus rhamnosus, growth inhibited by ≥80%, read-out: MIC
[41] = mean of 9 strains, >512 replaced with 1024
[42] = ATCC9610, growth inhibited by ≥80%

Row | Compound | MIC [2, 29] | MIC [3, 30] | MIC [4] | MIC [5, 31] | MIC [6] | MIC [9] | MIC [10, 34] | MIC [11, 35] | MIC [12, 36] | MIC [13, 37] | MIC [14, 38] | MIC [15] | MIC [16] | MIC ([17]; growth inhibited by ≥80%) | MIC [18, 39] | MIC [19, 40] | MIC [20, 41] | IC50 [21] | IC80 [21] | IC50 [22] | also measured
1 | O=C(O)c1cn(C2CC2)c2cc(N3CCNCC3)c(F)cc2c1=O [CP, ciprofloxacin] | 2 µg/mL (≈ 6.04 µM) | 0.062 µg/mL (≈ 0.187 µM) | 0.016 µg/mL (≈ 0.0483 µM) | 4 µg/mL (≈ 12.1 µM) | 0.016 µg/mL (≈ 0.0483 µM) | 0.062 µg/mL (≈ 0.187 µM) | 2 ± 4 µg/mL (≈ 6.04 µM) | 8 µg/mL (≈ 24.1 µM) | 8 µg/mL (≈ 24.1 µM) | 32 µg/mL (≈ 96.6 µM) | 16 µg/mL (≈ 48.3 µM) | 64 µg/mL (≈ 193 µM) | 16 µg/mL (≈ 48.3 µM) | 32 µg/mL (≈ 96.6 µM) | 32 µg/mL (≈ 96.6 µM) | 4 µg/mL (≈ 12.1 µM) | 23.6 ± 18 µg/mL (≈ 71.2 µM) | 130 ± 13 µg/mL (≈ 393 µM) | > 512 µg/mL | 51.8 ± 27 µg/mL (≈ 156 µM) | MIC [1, 28]: 1 µg/mL (≈ 3.02 µM); MIC [7, 32]: 0.031 µg/mL (≈ 0.0936 µM); MIC [8, 33]: 0.031 µg/mL (≈ 0.0936 µM); MIC ([10]; all gram-negative diarrheagenic bacteria, range over strains, read-out: MICs): 0.016 to 0.125 µg/mL (≈ 0.0483 to 0.377 µM); MIC ([10]; gram-positive pathogens, range over strains, read-out: MICs): 1 to 16 µg/mL (≈ 3.02 to 48.3 µM); IC80 [22]: 130 ± 24 µg/mL (≈ 391 µM)
2 | Cc1ncc([N+](=O)[O-])n1CCO [MA, metronidazole] | > 512 µg/mL | 0.062 µg/mL (≈ 0.362 µM) | > 512 µg/mL | 512 µg/mL (≈ 2990 µM) | > 512 µg/mL | > 512 µg/mL | 651 ± 459 µg/mL (≈ 3810 µM) | 0.5 µg/mL (≈ 2.92 µM) | 64 µg/mL (≈ 374 µM) | 32 µg/mL (≈ 187 µM) | > 512 µg/mL | 32 µg/mL (≈ 187 µM) | 8 µg/mL (≈ 46.7 µM) | > 512 µg/mL | 256 µg/mL (≈ 1500 µM) | > 512 µg/mL | 385 ± 458 µg/mL (≈ 2250 µM) | > 512 µg/mL | > 512 µg/mL | > 512 µg/mL | MIC ([1]; ATCC14579, […]): 128 µg/mL (≈ 748 µM); MIC ([23]; Clostridium difficile, […], read-out: MIC): 0.5 µg/mL (≈ 2.92 µM); MIC [24]: 8 µg/mL (≈ 46.7 µM); MIC [25, 42]: > 512 µg/mL; MIC ([10]; both clostridial species tested, read-out: MICs): 0.5 to 8 µg/mL (≈ 2.92 to 46.7 µM); IC50 [26]: > 512 µg/mL; IC80 [26]: > 512 µg/mL; IC50 [27]: > 512 µg/mL; IC80 [27]: > 512 µg/mL; IC50 ± SD [22]: - (Not active (MIC/IC50/80 > 512 μg/mL, the value 1024 μg/mL was used for average calculation)); IC80 ± SD (80% inhibitory concentration of proliferation) [22]: - (Not active (MIC/IC50/80 > 512 μg/mL, the value 1024 μg/mL was used for average calculation)); IC80 [22]: > 512 µg/mL
3 | O=C(OC[C@H]1O[C@@H](OC(=O)c2cc(O)c(O)c(OC(=O)c3cc(O)c(O)c(O)c3)c2)[C@H](OC(=O)c2cc(O)c(O)c(OC(=O)c3cc(O)c(O)c(O)c3)c2)[C@@H](OC(=O)c2cc(O)c(O)c(OC(=O)c3cc(O)c(O)c(O)c3)c2)[C@@H]1OC(=O)c1cc(O)c(O)c(OC(=O)c2cc(O)c(O)c(O)c2)c1)c1cc(O)c(O)c(OC(=O)c2cc(O)c(O)c(O)c2)c1 [TA, tannic acid] | – | – | 512 µg/mL (≈ 301 µM) | – | > 512 µg/mL | 128 µg/mL (≈ 75.2 µM) | 779 ± 307 µg/mL (≈ 458 µM) | – | – | – | – | 256 µg/mL (≈ 150 µM) | 128 µg/mL (≈ 75.2 µM) | – | – | – | – | – | – | – | MIC ([1]; ATCC14579, […]): 512 µg/mL (≈ 301 µM); MIC [23]: > 512 µg/mL; MIC [24]: 512 µg/mL (≈ 301 µM); MIC ([2]; ATCC29212): > 512 µg/mL; MIC ([3]; ATCC25922): > 512 µg/mL; MIC ([5]; ATCC7644): > 512 µg/mL; MIC [7]: > 512 µg/mL; MIC [8]: > 512 µg/mL; MIC ([25]; ATCC9610, […]): 512 µg/mL (≈ 301 µM); MIC ([11]; ATCC25285): > 512 µg/mL; MIC ([12]; DSMZ20087): > 512 µg/mL; MIC ([13]; Bifidobacterium animalis): > 512 µg/mL; MIC ([14]; ATCC29521): > 512 µg/mL; MIC ([17]; […]): 512 µg/mL (≈ 301 µM); MIC [18]: 512 µg/mL (≈ 301 µM); MIC [19]: > 512 µg/mL; MIC [20]: 725 ± 352 µg/mL (≈ 426 µM)
4 | CN(C)[C@@H]1C(O)=C(C(N)=O)C(=O)[C@@]2(O)C(O)=C3C(=O)c4c(O)cccc4[C@@](C)(O)[C@H]3C[C@@H]12 [TC, tetracycline] | 4 µg/mL (≈ 9 µM) | 1 µg/mL (≈ 2.25 µM) | 4 µg/mL (≈ 9 µM) | 2 µg/mL (≈ 4.5 µM) | 2 µg/mL (≈ 4.5 µM) | 1 µg/mL (≈ 2.25 µM) | – | 0.5 µg/mL (≈ 1.13 µM) | 64 µg/mL (≈ 144 µM) | 32 µg/mL (≈ 72 µM) | 16 µg/mL (≈ 36 µM) | 16 µg/mL (≈ 36 µM) | 2 µg/mL (≈ 4.5 µM) | 8 µg/mL (≈ 18 µM) | 32 µg/mL (≈ 72 µM) | 8 µg/mL (≈ 18 µM) | 19.8 ± 19 µg/mL (≈ 44.6 µM) | 393 ± 20 µg/mL (≈ 884 µM) | > 512 µg/mL | 14.7 ± 2.3 µg/mL (≈ 33.1 µM) | MIC [1, 28]: 0.5 µg/mL (≈ 1.13 µM); MIC [24]: 32 µg/mL (≈ 72 µM); MIC [7, 32]: 4 µg/mL (≈ 9 µM); MIC [8, 33]: 4 µg/mL (≈ 9 µM); MIC [25, 42]: 2 µg/mL (≈ 4.5 µM); MIC ([10]; read-out: MICs): 1 to 4 µg/mL (≈ 2.25 to 9 µM); MIC ([10]; read-out: x¯ -DB ± SD: mean MIC for diarrheagenic bacteria): 4.8 ± 8 µg/mL (≈ 10.8 µM); IC50 [26]: 70.4 ± 15 µg/mL (≈ 158 µM); IC80 [26]: > 512 µg/mL; IC50 [27]: 232 ± 161 µg/mL (≈ 521 µM); IC80 [27]: > 512 µg/mL; IC80 [22]: 108 ± 5 µg/mL (≈ 243 µM)
